Our source for the IC50 values is patent publication US20090099186A1, “INHIBITORS OF VIRAL REPLICATION” (priority 2005, published 2009).

The target in this assay is T1, full-length NS3 (1-631) protein (HCV NS3 helicase) (Hepatitis C virus genotype 1a, UniProt P27958).
T1 construct: Recombinant, purified, full-length NS3 (1-631) protein
Briefly: HCV Helicase TR-FRET Unwinding Assay. In kind it is biochemical. The method, then:
HCV Helicase TR-FRET Unwinding Assay
Compound potency was assessed by determining the ability of the compound to inhibit DNA unwinding in an in vitro homogeneous time-resolved fluorescence quench assay. The helicase substrate (Perkin Elmer, TruPoint Helicase Substrate) consisted of partially double-stranded DNA, with one oligonucleotide strand labeled with a fluorescent europium chelate and the other strand labeled with the QSY™ 7 quencher. In the presence of helicase and ATP, this DNA is unwound and a large increase in fluorescence is observed. An excess of an unlabeled oligonucleotide (also from Perkin Elmer, TruPoint Helicase Capture Strand) that is complementary to the quencher strand was included in the assay to prevent reannealing of the europium and QSY-labeled strands.
The assay buffer consisted of 25 mM MOPS (pH 7.0), 500 μM MgCl2, and 0.005% (v/v) Triton X-100, with DMSO being present at a final concentration of 2% (v/v). Recombinant, purified, full-length NS3 (1-631) protein was included in these assays at a final concentration of 2.5 nM. Compound was incubated with NS3 protein for 5 minutes in a 384-well white Proxiplate™ (Perkin Elmer) prior to the addition of TruPoint Helicase Substrate (4 nM final concentration), TruPoint Helicase Capture Strand (15 nM final concentration), and ATP (100 μM final concentration). The final reaction volume was 20 μL. Immediately after the addition of the substrates and capture strand, the initial rates of the unwinding reactions were determined at room temperature via an Envision (Perkin Elmer) plate reader. The rates of reactions containing test compound were compared to those lacking test compound in order to evaluate compound potency. IC50 values were determined using the curve-fitting software XLfit (IDBS).

The mark [1] stands for this setting: Table 4, inhibition of DNA unwinding, 2.5 nM NS3, 100 μM ATP.
Setting [2] is: second TR-FRET IC50 column (c2) of Table 4, same head as the first, inhibition of DNA unwinding.

T1 sequence (P27958 1027-1657 T1100M/T1173A/K1247Q/A1303G/S1327L/G1556E/R1608W): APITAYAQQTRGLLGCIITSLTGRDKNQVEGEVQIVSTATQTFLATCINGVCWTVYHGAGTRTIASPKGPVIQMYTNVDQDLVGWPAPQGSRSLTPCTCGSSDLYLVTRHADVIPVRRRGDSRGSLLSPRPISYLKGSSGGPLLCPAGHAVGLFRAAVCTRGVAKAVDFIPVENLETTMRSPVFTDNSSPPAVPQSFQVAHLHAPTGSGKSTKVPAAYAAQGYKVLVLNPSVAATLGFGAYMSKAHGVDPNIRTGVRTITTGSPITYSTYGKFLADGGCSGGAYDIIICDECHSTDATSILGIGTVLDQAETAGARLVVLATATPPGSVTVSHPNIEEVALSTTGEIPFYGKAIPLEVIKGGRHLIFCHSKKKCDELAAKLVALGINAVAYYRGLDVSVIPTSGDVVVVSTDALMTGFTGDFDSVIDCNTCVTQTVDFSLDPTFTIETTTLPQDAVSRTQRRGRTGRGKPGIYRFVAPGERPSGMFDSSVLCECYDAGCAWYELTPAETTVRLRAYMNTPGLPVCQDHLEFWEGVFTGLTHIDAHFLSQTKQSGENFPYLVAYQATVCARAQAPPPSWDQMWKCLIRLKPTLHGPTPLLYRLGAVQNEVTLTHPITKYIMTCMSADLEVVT

For the compound `O=C(/C=C/c1ccc(Sc2ccc(F)cc2)cc1Cl)N1CCN(C(=O)c2ccoc2)CC1` [Example 1B, (E)-3-(2-chloro-4-(4-fluorophenylthio)phenyl)-1-(4-(furan-3-carbonyl)piperazin-1-yl)prop-2-en-1-one], the IC50 (in general, the concentration needed to halve the response being measured) fell in the range of 10 to 50 µM under setting [1] and 10 to 50 µM under setting [2].

Take `O=C(/C=C/c1ccc(Sc2ccc(F)cc2)cc1Cl)N1CCCCC1` [Example 2, (E)-3-(2-chloro-4-(4-fluorophenylthio)phenyl)-1-(piperidin-1-yl)prop-2-en-1-one]: the IC50 by setting is: under setting [1], below 10 µM; under setting [2], below 10 µM.

Consider `O=C(/C=C/c1ccc(Sc2ccc(F)cc2)cc1Cl)N1CCOCC1` [Example 3, (E)-3-(2-chloro-4-(4-fluorophenylthio)phenyl)-1-morpholinoprop-2-en-1-one], for which the IC50 by setting is: under setting [1], 10 to 50 µM; under setting [2], 10 to 50 µM.

For the compound `CCN(CC)C(=O)/C=C/c1ccc(Sc2ccc(F)cc2)cc1Cl` [Example 4, (E)-3-(2-chloro-4-(4-fluorophenylthio)phenyl)-N,N-diethylacrylamide], the IC50 under setting [1] was in the range of 10 to 50 µM and the IC50 under setting [2] was 10 to 50 µM.

Regarding `COC(=O)C1CCN(C(=O)/C=C/c2ccc(Sc3ccc(F)cc3)cc2Cl)CC1` [Example 5, (E)-methyl 1-(3-(2-chloro-4-(4-fluorophenylthio)phenyl)acryloyl)piperidine-4-carboxylate], the IC50 under setting [1] lay within 10 to 50 µM and the IC50 under setting [2] fell in the range of 10 to 50 µM.

Regarding `O=C(O)C1CCN(C(=O)/C=C/c2ccc(Sc3ccc(F)cc3)cc2Cl)CC1` [Example 6], the IC50 fell in the range of 10 to 50 µM under setting [1] and 10 to 50 µM under setting [2].

As for `COC(=O)c1cccc(NC(=O)/C=C/c2ccc(Sc3ccc(F)cc3)cc2Cl)c1` [Example 7, (E)-methyl 3-(3-(2-chloro-4-(4-fluorophenylthio)phenyl)acrylamido)benzoate], the IC50 was below 10 µM under setting [1] and below 10 µM under setting [2].

`O=C(/C=C/c1ccc(Sc2ccc(F)cc2)cc1Cl)Nc1cccc(C(=O)O)c1` [Example 8, (E)-3-(3-(2-chloro-4-(4-fluorophenylthio)phenyl)acrylamido)benzoic acid]: the IC50 was below 10 µM under setting [1] and below 10 µM under setting [2].

`CC(=O)N1CCN(C(=O)/C=C/c2ccc(N(C)C)cc2Cl)CC1` [Example 9B, (E)-1-(4-acetylpiperazin-1-yl)-3-(2-chloro-4-(dimethylamino)phenyl)prop-2-en-1-one]: the IC50 under setting [1] is below 10 µM and the IC50 under setting [2] is below 10 µM.

`CN(C)c1ccc(/C=C/C(=O)NCCN2CCOCC2)c(Cl)c1` [Example 10] yielded an IC50 under setting [1] of 10 to 50 µM and an IC50 under setting [2] of 10 to 50 µM.

Take `CN(C)c1ccc(/C=C/C(=O)NCCCn2ccnc2)c(Cl)c1` [Example 11, (E)-N-(3-(1H-imidazol-1-yl)propyl)-3-(2-chloro-4-(dimethylamino)phenyl)acrylamide]: the IC50 lay in the range of 10 to 50 µM under setting [1] and 10 to 50 µM under setting [2].

Turning to `CN(C)c1ccc(/C=C/C(=O)N2CCN(C(=O)c3ccoc3)CC2)c(Cl)c1` [Example 12, (E)-3-(2-chloro-4-(dimethylamino)phenyl)-1-(4-(furan-3-carbonyl)piperazin-1-yl)prop-2-en-1-one], the IC50 reads like this: under setting [1], 10 to 50 µM; under setting [2], 10 to 50 µM.

`CN(C)c1ccc(/C=C/C(=O)N2CCOCC2)c(Cl)c1` [Example 13, (E)-3-(2-chloro-4-(dimethylamino)phenyl)-1-morpholinoprop-2-en-1-one] had an IC50 under setting [1] of 10 to 50 µM and an IC50 under setting [2] of 10 to 50 µM.

`COC(=O)C1CCN(C(=O)/C=C/c2ccc(N(C)C)cc2Cl)CC1` [Example 14, (E)-methyl 1-(3-(2-chloro-4-(dimethylamino)phenyl)acryloyl)piperidine-4-carboxylate]: the IC50 is, setting by setting: under setting [1], 10 to 50 µM; under setting [2], 10 to 50 µM.

Regarding `CN(C)c1ccc(/C=C/C(=O)N2CCC(C(=O)O)CC2)c(Cl)c1` [Example 15], the IC50 lay in the range of 10 to 50 µM under setting [1] and 10 to 50 µM under setting [2].

Compound `Cc1cc(/C=C/C(=O)N2CCCCC2)c(Cl)cc1Sc1ccc(F)cc1` [Example 16G, (E)-3-(2-chloro-4-(4-fluorophenylthio)-5-methylphenyl)-1-(piperidin-1-yl)prop-2-en-1-one] had an IC50 under setting [1] of 10 to 50 µM and a half-maximal inhibitory concentration (IC50) under setting [2] of 10 to 50 µM.

On to `Cc1cc(/C=C/C(=O)N2CCN(C(=O)c3ccoc3)CC2)c(Cl)cc1Sc1ccc(F)cc1` [Example 17, (E)-3-(2-chloro-4-(4-fluorophenylthio)-5-methylphenyl)-1-(4-(furan-3-carbonyl)piperazin-1-yl)prop-2-en-1-one], for which the IC50 by setting is: under setting [1], 10 to 50 µM; under setting [2], 10 to 50 µM.

On to `CCN(CC)C(=O)/C=C/c1cc(C)c(Sc2ccc(F)cc2)cc1Cl` [Example 18, (E)-3-(2-chloro-4-(4-fluorophenylthio)-5-methylphenyl)-N,N-diethylacrylamide], for which the IC50 is, setting by setting: under setting [1], 10 to 50 µM; under setting [2], 10 to 50 µM.

Take `CCOC(=O)CCNC(=O)/C=C/c1cc(C)c(Sc2ccc(F)cc2)cc1Cl` [Example 19, (E)-ethyl 3-(3-(2-chloro-4-(4-fluorophenylthio)-5-methylphenyl)acrylamido)propanoate]: the IC50 was in the range of 10 to 50 µM under setting [1] and 10 to 50 µM under setting [2].

In the case of `Cc1cc(/C=C/C(=O)NCCC(=O)O)c(Cl)cc1Sc1ccc(F)cc1` [Example 20, (E)-3-(3-(2-chloro-4-(4-fluorophenylthio)-5-methylphenyl)acrylamido)propanoic acid], the IC50 is, setting by setting: under setting [1], 10 to 50 µM; under setting [2], 10 to 50 µM.

On to `Cc1cc(/C=C/C(=O)Nc2cccc(C(=O)O)c2)c(Cl)cc1Sc1ccc(F)cc1` [Example 21, (E)-3-(3-(2-chloro-4-(4-fluorophenylthio)-5-methylphenyl)acrylamido)benzoic acid], for which the IC50 runs as follows: under setting [1], below 10 µM; under setting [2], below 10 µM.

With `Cc1cc(/C=C/C(=O)N2CCC(C(=O)O)CC2)c(Cl)cc1Sc1ccc(F)cc1` [Example 22, (E)-1-(3-(2-chloro-4-(4-fluorophenylthio)-5-methylphenyl)acryloyl)piperidine-4-carboxylic acid], the IC50 by setting is: under setting [1], 10 to 50 µM; under setting [2], below 10 µM.

For the compound `Cc1cc(/C=C/C(=O)N2CCOCC2)c(Cl)cc1Sc1ccc(F)cc1` [Example 23, (E)-3-(2-chloro-4-(4-fluorophenylthio)-5-methylphenyl)-1-morpholinoprop-2-en-1-one], the IC50 is, setting by setting: under setting [1], 10 to 50 µM; under setting [2], 10 to 50 µM.

With `COc1ccccc1Sc1ccc(/C=C/C(=O)NCCCN(C)C)c(Cl)c1` [Example 24B, (E)-3-(2-chloro-4-(2-methoxyphenylthio)phenyl)-N-(3-(dimethylamino)propyl)acrylamide], the IC50 was in the range of 10 to 50 µM under setting [1] and 10 to 50 µM under setting [2].

`COc1ccccc1Sc1ccc(/C=C/C(=O)NCCC2CCN(C)C2)c(Cl)c1` (centres unmarked) [Example 25, (E)-3-(2-chloro-4-(2-methoxyphenylthio)phenyl)-N-(2-(1-methylpyrrolidin-3-yl)ethyl)acrylamide] yielded an IC50 under setting [1] of 10 to 50 µM and a concentration for half-maximal inhibition (IC50) under setting [2] of 10 to 50 µM.

As to `COc1ccccc1Sc1ccc(/C=C/C(=O)N2CCC(C(=O)O)CC2)c(Cl)c1` [Example 26, (E)-1-(3-(2-chloro-4-(2-methoxyphenylthio)phenyl)acryloyl)piperidine-4-carboxylic acid], the IC50 was 10 to 50 µM under setting [1] and 10 to 50 µM under setting [2].

With `COc1ccccc1Sc1ccc(/C=C/C(=O)N2CCN(C(=O)c3ccoc3)CC2)c(Cl)c1` [Example 27, (E)-3-(2-chloro-4-(2-methoxyphenylthio)phenyl)-1-(4-(furan-3-carbonyl)piperazin-1-yl)prop-2-en-1-one], the IC50 is, setting by setting: under setting [1], 10 to 50 µM; under setting [2], 10 to 50 µM.

For the compound `CCN(CC)C(=O)/C=C/c1ccc(Sc2ccccc2OC)cc1Cl` [Example 28, (E)-3-(2-chloro-4-(2-methoxyphenylthio)phenyl)-N,N-diethylacrylamide], the IC50 under setting [1] lay in the range of 10 to 50 µM and the IC50 under setting [2] is 10 to 50 µM.

Consider `COc1ccccc1Sc1ccc(/C=C/C(=O)NCCC(=O)O)c(Cl)c1` [Example 29, (E)-3-(3-(2-chloro-4-(2-methoxyphenylthio)phenyl)acrylamido)propanoic acid], for which the IC50 fell in the range of 10 to 50 µM under setting [1] and 10 to 50 µM under setting [2].

Take `COc1ccccc1Sc1ccc(/C=C/C(=O)N2CCC(N3CCCC3)CC2)c(Cl)c1` [Example 30, (E)-3-(2-chloro-4-(2-methoxyphenylthio)phenyl)-1-(4-(pyrrolidin-1-yl)piperidin-1-yl)prop-2-en-1-one]: the half-inhibitory concentration (IC50) lay in the range of 10 to 50 µM under setting [1] and 10 to 50 µM under setting [2].

Regarding `O=C(O)C1CCN(C(=O)/C=C/c2ccc(Sc3ccc(F)cc3)cc2C(F)(F)F)CC1` [Example 31B, (E)-1-(3-(4-(4-fluorophenylthio)-2-(trifluoromethyl)phenyl)acryloyl)piperidine-4-carboxylic acid], the IC50 is, setting by setting: under setting [1], 10 to 50 µM; under setting [2], 10 to 50 µM.
